Data on 1 compound can be found in patent EP1932852B1, “Novel taxane related peptides and uses thereof” (Campiani, Giuseppe, priority 2006, dated 2008).

The target in test [1] is T1, Bcl2/Nur77 complex (Homo sapiens, UniProt P10415).
T1 construct: endogenous in cells; host or cells: A2780 (human ovarian cancer) whole cell lysate
The experiment in a line: Co-immunoprecipitation of Nur77 with Bcl-2 in the presence of PTX. The conditions noted are these: whole cell lysates from A2780, PTX 10 µM, 2 h at 4 °C. It is filed as binding. Here is the method:
(§1) Cells, harvested in cold phosphate-buffered saline, were extracted for 30 min at 4 °C in lysis buffer (50 mM Tris-HCl, pH 7.4, 150 mM NaCl, 1% NP-40) containing 1mM DTT, protease inhibitor cocktail (Roche) and phosphatase inhibitors (50 mM NaF, 0.2 mM Na3VO4). Mitochondria isolation was performed as previously described (Ferlini et al., 2003). After centrifugation, supernatants (300 µg from total lysates and 100 µg from mitochondrial extracts) were immunoprecipitated at 4 °C overnight in lysis buffer by adding protein A/G plus-agarose beads (Santa Cruz Biotechnology) after 2 h of incubation with 2 µg of the following antibodies: anti-Bcl-2 (N19, Santa Cruz Biotechnology), anti-Bcl-2 (clone 124, Dako), anti-Bcl-2 BH3 domain (Abgent), anti-Nur77 (Imgenex), anti-β-tubulin (H235, Santa Cruz Biotechnology), anti-class III β-tubulin polyclonal antibody (Covance) and isotype-matched non-immune IgG (Sigma) as control. […]
The significant similarity between the binding sites of the two PTX target proteins resulted from molecular modeling studies prompted the authors to investigate the possibility that PTX is a peptidomimetic compound. […] In order to assess this hypothesis, recombinant histidine-tagged Nur77 was purified and the interaction with in vitro produced Bcl-2 and Bcl-2Δ labeled with ^35S-methionine was analyzed. […]

For test [2], the system named is Bcl-2. The experiment in a line: Western blot of Bcl-2 in mitochondrial extracts (mobility shift). It is filed as cell-based, human. The conditions noted are these: A2780wt treated 24h with PTX 1 µM. Here is the method:
as §1
It has already been shown that Bcl-2 is phosphorylated following exposure to PTX and that phosphorylation occurs in the disordered loop of Bcl-2 (Haldar et al., 1996; Fang et al., 1998). In order to investigate if Nur77, like PTX, is able to induce Bcl-2 mobility shifts, A2780 and TC1 cell lines overexpressing Nur77 (thereafter referred to as A2780Nur77 and TC1Nur77) were established and Bcl-2 status was analysed. […]
On the technique in general: In western blotting, separated proteins are transferred to a membrane and probed.

The subject of test [3] is mitochondria freshly isolated from TC1-Bcl-2Δ cells. The experiment in a line: Flow cytometric assessment of Δψm in freshly isolated mitochondria (Rhodamine 123). To be noted: PTX 10 µM, 60 min; mitochondria from TC1-Bcl-2Δ; without treatment 14%. It is filed as cell-based, human. Here is the method: (§2) Cell culture procedures and cell lines have been elsewhere described (Ferlini et al., 2003). Mitochondria were freshly isolated and mitochondrial transmembrane potential Δψm was assessed as previously described (Ferlini et al., 1995), using Rhodamine 123 (Molecular Probes) and a Facscan flow cytometer (Becton Dickinson).
(§3) Here, they used the human ovary A2780 cancer cell line and its counterpart TC1 (Ferlini et al., 2003) with acquired PTX-resistance. […] Since the homology between the Bcl-2 and Bcl-xL is high, with the exception of the loop domain, TC1 cells were stably transfected with a construct in which the loop domain of Bcl-2 (aa 35-91) was deleted and replaced with a linker sequence of four alanine residues, as previously described by Chang et al. (Chang et al., 1997). These cells are thereafter referred to as TC1 Bcl-2Δ. Mitochondria were freshly isolated from these cells and were treated with PTX (10 µM). This concentration has a clinical relevance since it corresponds to the intracellular concentration achievable in patients. (Andre et al., 2000).
(§4) The status of mitochondrial transmembrane potential (Δψm) was then monitored using the cationic fluorochrome Rhodamine 123 and flow cytometry. Results of these experiments are depicted in Fig. 1B. […] In fact, as reported in Fig. 1B the percentage of mitochondria with full leakage of the Δψm pass from 18% to 78%. […] In TC1-Bcl-2 cells, the sensitivity to PTX treatment was restored and again the vast majority of treated mitochondria were able to open the PTPC upon PTX treatment and dissipate the Δψm (from 8% to 82%). […] Taken together, these findings indicate that PTX is able to convert Bcl-2 in a factor proficient to activate the opening of PTPC and that such activity requires the presence of Bcl-2 loop domain, since it is not longer detectable in mitochondria from TC1-Bcl-2Δ cells.
(In flow cytometry, cells or beads pass a laser one at a time.)

Test [4] deals with mitochondria freshly isolated from TC1 cells. Described as above. The conditions noted are these: PTX 10 µM, 60 min; mitochondria from TC1 (undetectable Bcl-2); without treatment 16%. The class given is cell-based, human. The procedure:
as §2, §3, §4

Test [5] deals with mitochondria freshly isolated from TC1-Bcl-2 cells. Described as above. The class given is cell-based, human. The conditions noted are these: PTX 10 µM, 60 min; mitochondria from TC1-Bcl-2; without treatment 8%. Here is the method: as §2, §3, §4
In test [6] the test system is mitochondria freshly isolated from A2780wt cells. The description is as above. The class given is cell-based, human. To be noted: PTX 10 µM, 60 min, without treatment 18%. Here is the method:
as §2, §3, §4

T1 sequence (P10415 whole entry, one chain of several): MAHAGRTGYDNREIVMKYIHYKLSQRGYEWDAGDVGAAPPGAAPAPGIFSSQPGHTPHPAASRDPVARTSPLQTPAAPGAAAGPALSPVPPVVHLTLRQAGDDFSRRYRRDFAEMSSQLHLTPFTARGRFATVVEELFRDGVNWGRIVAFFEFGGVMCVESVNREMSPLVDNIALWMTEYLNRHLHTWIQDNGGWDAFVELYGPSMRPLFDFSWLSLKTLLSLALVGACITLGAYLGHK

`CC(=O)O[C@H]1C(=O)[C@@]2(C)[C@H]([C@H](OC(=O)c3ccccc3)[C@]3(O)C[C@H](OC(=O)[C@H](O)[C@@H](NC(=O)c4ccccc4)c4ccccc4)C(C)=C1C3(C)C)[C@]1(OC(C)=O)CO[C@@H]1C[C@@H]2O` [PTX, paclitaxel]: in test [1], the “displacement of Nur77 from Bcl-2” value is listed as “able to displace Nur77 from Bcl-2”. Also, the “slow mobility band of Bcl-2” value in test [2] is given as “slow mobility band was detectable”. In addition, in test [3], the “mitochondria with changed Δψm status” value is on record as 20%. Besides, in test [4], the “number of mitochondria with the leakage of Δψm” value was 26%. For the same compound, the “mitochondria that open the PTPC and dissipate the Δψm” value in test [5] is 82%. For the same compound, in test [6], the “percentage of mitochondria with full leakage of the Δψm” value is on record as 78%.
